Among the data in patent US12678386B2, “Organic compounds as TRPM8 activators” (Givaudan SA, priority 2021, dated 2026) are EC50 values, retold here.

Molecules are shown by their SMILES.

This assay deals with T1, hTRPM8 (Homo sapiens, UniProt Q7Z2W7).
T1 construct: expressed in transfected cells
T1 sequence (Q7Z2W7 whole entry): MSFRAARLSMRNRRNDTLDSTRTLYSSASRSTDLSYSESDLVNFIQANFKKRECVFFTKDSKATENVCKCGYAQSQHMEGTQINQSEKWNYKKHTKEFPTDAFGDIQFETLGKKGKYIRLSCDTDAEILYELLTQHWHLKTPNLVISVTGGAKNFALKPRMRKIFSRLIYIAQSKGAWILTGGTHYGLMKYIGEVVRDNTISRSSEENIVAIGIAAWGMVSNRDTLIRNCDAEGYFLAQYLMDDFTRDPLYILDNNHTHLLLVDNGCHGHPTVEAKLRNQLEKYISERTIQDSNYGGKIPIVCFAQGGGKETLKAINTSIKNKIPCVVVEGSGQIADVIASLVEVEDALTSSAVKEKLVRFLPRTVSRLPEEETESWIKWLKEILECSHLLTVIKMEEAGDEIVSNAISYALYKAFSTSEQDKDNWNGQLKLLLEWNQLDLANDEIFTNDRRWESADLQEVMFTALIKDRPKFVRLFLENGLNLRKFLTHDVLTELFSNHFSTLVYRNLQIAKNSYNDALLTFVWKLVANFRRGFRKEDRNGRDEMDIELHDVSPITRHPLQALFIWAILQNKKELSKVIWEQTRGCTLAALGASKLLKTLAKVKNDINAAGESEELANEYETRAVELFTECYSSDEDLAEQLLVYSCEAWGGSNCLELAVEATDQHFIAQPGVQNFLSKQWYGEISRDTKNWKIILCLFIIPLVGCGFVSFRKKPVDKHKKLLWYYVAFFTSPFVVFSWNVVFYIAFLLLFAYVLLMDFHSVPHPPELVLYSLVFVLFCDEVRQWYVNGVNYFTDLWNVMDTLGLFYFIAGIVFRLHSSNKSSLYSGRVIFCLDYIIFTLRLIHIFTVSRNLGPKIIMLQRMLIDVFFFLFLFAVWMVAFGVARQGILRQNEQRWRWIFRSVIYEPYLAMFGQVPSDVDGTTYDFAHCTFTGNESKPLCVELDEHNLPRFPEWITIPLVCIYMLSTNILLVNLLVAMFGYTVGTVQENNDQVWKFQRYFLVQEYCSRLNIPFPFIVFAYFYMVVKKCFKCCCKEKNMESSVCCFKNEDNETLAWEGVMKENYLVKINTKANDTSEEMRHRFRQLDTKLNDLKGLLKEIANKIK
Briefly: Assay on TRPM8 modulators: calcium imaging (Fluo-4, Flexstation) in HEK293 cell line stably expressing hTRPM8. It is filed as cell-based. As to conditions: HEK293 cells stably expressing hTRPM8; calcium influx, sigmoidal dose-response fit. The method, then: A HEK293 cell line stably expressing hTRPM8 was generated according to Klein et al., (Chem. Senses 36: 649-658, 2011) and receptor activation was monitored by calcium imaging in a Flexstation. For Ca-imaging assays of TRPM8 channel activation, cells were seeded on day 0 at a density of 12000 cells per well in Dulbecco's modified Eagle medium (DMEM) containing 9% foetal bovine serum in black, clear bottom 96-well plates that had been coated with 0.001% polyethyleneimine (molecular weight=60 000, Acros Organics). On day 2, agonists were evaluated via calcium imaging using Fluo-4. Briefly, growth medium was discarded, and the cells were incubated in the dark for 1 h at 37° C. in 50 μL loading buffer consisting of 2.7 μM Fluo-4 AM (Invitrogen) and […] probenecid (Sigma-Aldrich) in DMEM (without serum). After incubation, the plates were washed five times with 100 μL of assay buffer (in mM: 130 NaCl, 5 KCl, 10 HEPES, 2 CaCl2, and 10 glucose, pH7.4.) and further incubated in the dark at room temperature for 30 min. The cells were then washed five times with 100 μL assay buffer and then calcium influx to serial dilutions of inventive compounds were measured in a Flexstation 3 (Molecular Devices). Receptor activation was initiated following addition of 20 μl of a 10-fold concentrated ligand stock solution, which is also prepared in assay buffer. Fluorescence was continuously monitored for 15 seconds prior to ligand addition and for 105 seconds after ligand addition, for a total of 120 seconds. Maximal receptor activation in relation to solvent control and relative to 31.6 μM menthol is determined. Data from serial dilutions were processed with a KNIME workflow to fit a sigmoidal dose-response curve and to extrapolate EC50 values.
Take `CCC(C)C(=O)N1CCCCC1c1nc(-c2ccc(C)cc2)cn1C(=O)COCc1ccccc1` (stereo not shown) [1-(2-(1-(2-(benzyloxy)acetyl)-4-(p-tolyl)-1H-imidazol-2-yl)piperidin-1-yl)-2-methylbutan-1-one]: the EC50 is under 50 nM. Under `CCCCCCCCCCCC(=O)n1cc(-c2ccc(C)cc2)nc1C1CCCCN1C(=O)C(C)SC` (stereo not shown) [1-(2-(1-(2-(methylthio)propanoyl)piperidin-2-yl)-4-(p-tolyl)-1H-imidazol-1-yl)dodecan-1-one] stands 50 to 300 nM; under `CCCCCC(=O)n1cc(-c2ccc(C)cc2)nc1C1CCCCN1C(=O)C(C)SC` (stereo not shown) [1-(2-(1-(2-(methylthio)propanoyl)piperidin-2-yl)-4-(p-tolyl)-1H-imidazol-1-yl)hexan-1-one], 50 to 300 nM. On to `CCC(C)C(=O)N1CCCCC1c1nc(-c2ccc(C)cc2)cn1C(=O)COC` (stereo not shown) [1-(2-(1-(2-methoxyacetyl)-4-(p-tolyl)-1H-imidazol-2-yl)piperidin-1-yl)-2-methylbutan-1-one], for which the EC50 is under 50 nM. On to `CCCCCCCCCCCC(=O)n1cc(-c2ccc(C)cc2)nc1C1CCCCN1C(=O)C(C)CC` (stereo not shown) [1-(2-(1-(2-methylbutanoyl)piperidin-2-yl)-4-(p-tolyl)-1H-imidazol-1-yl)dodecan-1-one], for which the EC50 is 300 to 1000 nM.

As to `CCCCCC(=O)n1cc(-c2ccc(C)cc2)nc1C1CCCCN1C(=O)C(C)CC` (stereo not shown) [1-(2-(1-(2-methylbutanoyl)piperidin-2-yl)-4-(p-tolyl)-1H-imidazol-1-yl)hexan-1-one], the EC50 is under 50 nM. Under `CSC(C)C(=O)N1CCCCC1c1nc(-c2ccc(C)cc2)cn1C(=O)[C@@H]1C[C@H](C)CC[C@H]1C(C)C` (stereo partly drawn) [1-(2-(1-((1R,2S,5R)-2-isopropyl-5-methylcyclohexane-1-carbonyl)-4-(p-tolyl)-1H-imidazol-2-yl)piperidin-1-yl)-2-(methylthio)propan-1-one] stands 300 to 1000 nM; under `CCC(C)C(=O)N1CCCCC1c1nc(-c2ccc(C)cc2)cn1C(=O)[C@@H]1C[C@H](C)CC[C@H]1C(C)C` (stereo partly drawn) [1-(2-(1-((1R,2S,5R)-2-isopropyl-5-methylcyclohexane-1-carbonyl)-4-(p-tolyl)-1H-imidazol-2-yl)piperidin-1-yl)-2-methylbutan-1-one], 1000 to 35000 nM; under `CSC(C)C(=O)N1CCCCC1c1nc(-c2ccc(C)cc2)cn1C(C)=O` (stereo not shown) [1-(2-(1-acetyl-4-(p-tolyl)-1 H-imidazol-2-yl)piperidin-1-yl)-2-(methylthio)propan-1-one], 50 to 300 nM. To `CCC(C)C(=O)N1CCCCC1c1nc(-c2ccc(C)cc2)cn1C(C)=O` (stereo not shown) [1-(2-(1-acetyl-4-(p-tolyl)-1H-imidazol-2-yl)piperidin-1-yl)-2-methylbutan-1-one] belongs under 50 nM. Under `CSC(C)C(=O)N1CCCCC1c1nc(-c2ccc(C)cc2)cn1C(=O)c1ccccc1` (stereo not shown) [1-(2-(1-benzoyl-4-(p-tolyl)-1 H-imidazol-2-yl)piperidin-1-yl)-2-(methylthio)propan-1-one] stands under 50 nM. For the molecule `CCC(C)C(=O)N1CCCCC1c1nc(-c2ccc(C)cc2)cn1C(=O)C(C)C` (stereo not shown) [1-(2-(1-isobutyryl-4-(p-tolyl)-1 H-imidazol-2-yl)piperidin-1-yl)-2-methylbutan-1-one], the EC50 is 50 to 300 nM. Under `CSC(C)C(=O)N1CCCCC1c1nc(-c2ccc(C)cc2)cn1C(=O)C(C)C` (stereo not shown) [1-(2-(1-isobutyryl-4-(p-tolyl)-1H-imidazol-2-yl)piperidin-1-yl)-2-(methylthio)propan-1-one] stands under 50 nM; under `Cc1ccc(-c2cn(C(=O)C(C)C)c(C3CCCCN3C(=O)C(C)C)n2)cc1` (stereo not shown) [1-(2-(1-isobutyryl-4-(p-tolyl)-1H-imidazol-2-yl)piperidin-1-yl)-2-methylpropan-1-one], 50 to 300 nM. With `CCC(=O)N1CCCCC1c1nc(-c2ccc(C)cc2)cn1C(=O)CC` (stereo not shown) [1-(2-(1-propionyl-4-(p-tolyl)-1 H-imidazol-2-yl)piperidin-1-yl)propan-1-one], the EC50 fell in the range of 1000 to 35000 nM. As to `CSC(C)C(=O)N1CCCCC1c1nc(-c2ccc(C)cc2)cn1C(=O)C(C)SC` (stereo not shown) [2-(methylthio)-1-(2-(1-(2-(methylthio)propanoyl)-4-(p-tolyl)-1H-imidazol-2-yl)piperidin-1-yl)propan-1-one], the EC50 is under 50 nM.

Take `CC(=O)n1ccc(N(Cc2cccs2)C(=O)COc2ccc(C)cc2)n1` [N-(1-acetyl-1H-pyrazol-3-yl)-N-(thiophen-2-ylmethyl)-2-(p-tolyloxy)acetamide]: the EC50 was under 50 nM.

Take `Cc1ccc(OCC(=O)N(Cc2cccs2)c2ccn(C(=O)c3ccccc3)n2)cc1` [N-(1-benzoyl-1H-pyrazol-3-yl)-N-(thiophen-2-ylmethyl)-2-(p-tolyloxy)acetamide]: the EC50 was under 50 nM. `Cc1ccc(OCC(=O)N(Cc2cccs2)c2ccn(C(=O)C(C)C)n2)cc1` [N-(1-isobutyryl-1H-pyrazol-3-yl)-N-(thiophen-2-ylmethyl)-2-(p-tolyloxy)acetamide]: the EC50 is under 50 nM.

As usually defined, the EC50 is the concentration needed to bring the measured effect to its halfway point.
